{
  "source": "patent US6656907B1",
  "about": "“Method of treating gastric ulcer by administration of epidermal growth factor” (University Technologies International Inc., priority 1995, dated 2003)",
  "test_system": "intestinal brush border membrane nutrient absorption",
  "test": "Nutrient uptake into brush border membrane vesicles after jejunal loop treatment",
  "assay_type": "in vivo, New Zealand White rabbits",
  "protocol": "Subsequent experiments examined the effects of EGF and an inhibitor of the EGF receptor (tyrphostin 51) on intestinal brush border membrane nutrient absorption. Tyrphostin 51is a specific inhibitor of tyrosine kinase, which is a critical element of the EGF intracellular signalling cascade. Studies were performed in New Zealand White rabbits (700-1000 g; approximately 8 weeks of age). Two 10 cm blind jejunal loops separated by a 1 cm segment were tied off starting 5 cm distal to the ligament of Treitz. In separate experiments either EGF (60 ng/ml), EGF+tyrphostin (10 μM), or tyrphostin (10 μM) alone in 1.5 ml of saline vehicle was administered to one of the loops. The other loop received vehicle alone and served as a paired control. After one hour, the loops were removed and the mucosa scraped for preparation of brush border membrane vesicles. Nutrient (D-glucose and L-proline) uptake into brush border membrane vesicles was determined by established techniques. Luminal EGF stimulated a significant increase (p<0.001) in brush border membrane glucose (EGF 16.1±1.0 vs CONTROL 11.5±0.9 nmol/min/mg protein; n=5) and proline (EGF 3.8±0.5 vs CONTROL 2.6±0.3 nmol/min/mg protein; n=5) transport compared to controls. […] Subsequently, a further series of experiments examined the effect of tyrphostin alone on brush border glucose transport. […]",
  "data": [
    {"compound": "N#CC(C#N)=C(N)/C(C#N)=C/c1cc(O)c(O)c(O)c1", "note": "[TYR, tyrphostin 51, reference compound]", "values": [
      {"measurement": "effect on EGF-induced increase in glucose uptake", "setting": "concurrent tyrphostin 10 μM with EGF 60 ng/ml", "value": "completely blocked"},
      {"measurement": "brush border membrane glucose uptake", "setting": "tyrphostin 10 μM alone, one hour, n=4, control 10.7±1.0", "value": "8.0±0.8", "unit": "nmol/min/mg protein"}
    ]}
  ]
}
